The results in this text go back to patent publication US11993591B2, “Chromen-4-one derivatives for the treatment and prophylaxis of hepatitis B virus disease” (Hoffmann-La Roche Inc., priority 2018, dated 2024).

For the first experiment, the system named is HBV cccDNA (HBeAg level) in HepDES19 cells. As to the kind of experiment: Engineered HepDES19 primary screen assay (HBeAg as surrogate marker for cccDNA). Format: cell-based. As to conditions: Hepatitis B virus, HepDES19, 120 h. From the text:
The assay was employed to screen for novel cccDNA inhibitors. HepDES19 is a cccDNA-producing cell line. In this cell line, HBeAg in the cell culture supernatant as surrogate marker, as HBeAg production depends on cccDNA level and activity. HepDES19 is an engineered cell line which contains a 1.1 unit length HBV genome, and pgRNA transcription from the transgene is controlled by Tetracycline (Tet). In the absence of Tet, pgRNA transcription will be induced, but HBV e antigen (HBeAg) could not be produced from this pgRNA due to very short leader sequence before the HBeAg start codon and the start codon is disrupted. Only after cccDNA is formed, the missing leader sequence and start codon mutation would be restored from the 3′-terminal redundancy of pgRNA, and then HBeAg could be synthesized. Therefore, HBeAg could be used as a surrogate marker for cccDNA (Zhou, T. et al., Antiviral Res. (2006), 72(2), 116-124; Guo, H. et al., J. Virol. (2007), 81(22), 12472-12484).
HepDES19 cells were seeded at 2×10^6 cells per T150 flask and cultured with the culture medium (Dulbecco's Modified Eagle Medium: Nutrient Mixture F-12 [DMEM-F12, Gibco Cat. 11320-82], 10% Fetal Bovine Serum [FBS, Clontech Cat. 631101], 0.1 mM Non-Essential Amino Acids Solution [NEAA, Gibco Cat. 11140-050], 50 μg/mL Penicillin-Streptomycin [PS, Invitrogen Cat. 15140-163], 500 μg/mL Geneticin [G418, Invitrogen Cat. 10131-027]) containing 3 μg/mL Tet (Sigma, Cat. 87128) for 5 days. Cells were then seeded at 4×10^6 cells per T150 in the same culture medium as described above in the absence of Tet for 8 days. Cells were then harvested and frozen at density of 2×10^6 cells per mL. For compound testing, the frozen cells were thawed and seeded into 96-well plates at a density of 6×10^4 cells per well. At 24 hours after seeding, half log serial dilutions of compounds made with Dimethyl sulfoxide (DMSO, Sigma, Cat. D2650) were further diluted with the same culture medium as described above before they were added to the cells to reach desired final compound concentrations and 1% DMSO concentration. Plates were then incubated at 37° C. for another 5 days before measurement of HBeAg level and cell viability. Intracellular HBeAg level were measured with enzyme-linked immunosorbent assay (ELISA) kit (Shanghai Kehua Diagnostic Medical Products Co., Ltd). Cell viability was assessed using Cell Counting Kit-8 (Donjindo, Cat. CK04-20). IC50 values were derived from the dose-response curve using 4 parameter logistic curve fit method.
The compounds of the present invention were tested for their capacity to inhibit extracellular HBeAg level as described herein.
`CC1c2ccc(O)cc2CCN1c1cc(=O)c2cccc(Cl)c2o1` (stereo not drawn) [Example 57, 8-chloro-2-(6-hydroxy-1-methyl-3,4-dihydro-1H-isoquinolin-2-yl)chromen-4-one]: 20 µM corresponded to half-maximal inhibition (IC50).
Still for that read-out and setting: then `O=C(O)C1CC(OCCOc2ccc3c(c2)CCN(c2cc(=O)c4cccc(Cl)c4o2)C3=O)C1` (stereo not drawn) [Example 58, 3-(2-((2-(8-chloro-4-oxo-chromen-2-yl)-1-oxo-1,2,3,4-tetrahydroisoquinolin-6-yl)oxy)ethoxy)cyclobutanecarboxylic Acid], with 23.4 µM; and `O=c1cc(-n2ccc(OCc3ccccc3)cc2=O)oc2c(Cl)cccc12` [Example 59, 4-(benzyloxy)-1-(8-chloro-4-oxo-chromen-2-yl)pyridin-2(1H)-one], with 24.4 µM.
In turn, `O=C(O)C1CC(OCCOc2ccc(CNc3cc(=O)c4cccc(Cl)c4o3)cc2)C1` (stereo not drawn) [Example 60, 3-(2-(4-(((8-chloro-4-oxo-chromen-2-yl)amino)methyl)phenoxy)ethoxy)cyclobutanecarboxylic Acid] yielded an IC50 of 30.8 µM. This IC50 and that of the compound before are within 1.5-fold of each other.
In turn, `O=c1c(I)c(N2CCC(O)CC2)oc2c(Cl)cccc12` [Example 61, 8-chloro-2-(4-hydroxypiperidin-1-yl)-3-iodo-chromen-4-one] registered an IC50 of 30.9 µM.
Same read-out and setting: with `CC(C)(C)OC(=O)N1CC2(C1)CN(c1cc(=O)c3cccc(Cl)c3o1)C2` [Example 62, Tert-butyl 6-(8-chloro-4-oxo-chromen-2-yl)-2,6-diazaspiro[3.3]heptane-2-carboxylate] the figure was 33.2 µM.
`COC(=O)c1cccc(C(=O)N2CC3(C2)CN(c2cc(=O)c4cccc(Cl)c4o2)C3)c1` [Example 63, Methyl 3-[6-(8-chloro-4-oxo-chromen-2-yl)-2,6-diazaspiro[3.3]heptane-2-carbonyl]benzoate]: the IC50 turned out to be 31.7 µM.
In turn, `O=C(O)C1CC(OCCOc2ccc3c(c2)CN(c2cc(=O)c4cccc(Cl)c4o2)C3=O)C1` (stereo not drawn) [Example 64, 3-(2-((2-(8-chloro-4-oxo-chromen-2-yl)-1-oxoisoindolin-5-yl)oxy)ethoxy)cyclobutanecarboxylic Acid] returned an IC50 of 36.6 µM.
Still for that read-out and setting: then `COc1ccc2c(c1)C(=O)N(c1cc(=O)c3cccc(Cl)c3o1)CC2` [Example 65, 2-(8-chloro-4-oxo-chromen-2-yl)-7-methoxy-3,4-dihydroisoquinolin-1-one], with 37.6 µM.

The subject of a further experiment is HBV (extracellular HBsAg) in primary human hepatocytes. As to the kind of experiment: Cryopreserved Primary Human Hepatocytes (PHH) HBV infection assay. Format: cell-based. As to conditions: Hepatitis B virus, Hepatocyte, 216 h; extracellular HBsAg (CLIA), HBV-infected cryopreserved PHH, 9 days post-compound treatment. As to the method:
This assay is used to confirm the anti-HBV effect of the compounds in HBV PHH infection assay. Cryopreserved PHH (BioreclamationIVT, Lot YJM) was thawed at 37° C. and gently transferred into pre-warmed InVitroGRO HT medium (BioreclamationIVT, Cat. S03317).
The mixture was centrifuged at 70 relative centrifugal force (RCF) for 3 mins at RT, and the supernatant was discarded. Pre-warmed InVitroGRO CP medium (BioreclamationIVT, Cat #S03316) was added to the cell pellet to gently re-suspend cells. The cells were seeded at the density of 5.8×10^4 cells per well to collagen I coated 96-well plate (Gibco, Cat. A1142803) with the InVitroGRO CP medium. All plates were incubated at 37° C. with 5% CO2 and 85% humidity.
At 20 hours after plating, the medium was changed to PHH culture medium (Dulbecco's Modified Eagle Medium (DMEM)/F12 (1:1) (Gibco, Cat. 11320-033), 10% fetal bovine serum (Gibco Cat. 10099141), 100 U/mL penicillin, 100 μg/mL streptomycin (Gibco, Cat. 151401-122), […] (Invitrogen Cat. PHG0311L), 20 ng/mL dexamethasone (Sigma, Cat. D4902) and 250 ng/mL human recombinant insulin (Gibco, Cat. 12585-014)). And the cells were incubated at 37° C. with 5% CO2 and 85% humidity for 4 hours. The medium was then changed to pre-warmed PHH culture medium containing 4% polyethylene glycol (PEG) MW8000 (Sigma, Cat. P1458-50ML) and 1% DMSO (Sigma, Cat. D2650). 5.8×10^6 genomic equivalents of HBV were added into the medium.
At 24 hours post-infection, the cells were gently washed with PBS and refreshed with PHH culture medium supplemented with 1% DMSO, and 0.25 mg/mL Matrix gel (Corning, Cat. 356237) at 200 μL per well. All plates were immediately placed in at 37° C. CO2 incubator. 24 hours later, serial dilutions of compounds made with DMSO were further diluted with the same culture medium (PHH culture medium supplemented with 1% DMSO and 0.25 mg/mL Matrix gel as described above) before they were added to the cells to reach desired final compound concentrations and 1% DMSO concentration. The medium containing the compounds were refreshed every three days.
At 9 days post-compound treatment, extracellular HBsAg level were measured with Chemiluminescence Immuno Assay (CLIA) kit (Autobio, HBsAg Quantitative CLIA). Extracellular HBV DNA was extracted by MagNA Pure 96 system (Roche) and then determined by quantitative PCR with the following primers and probe: […]
HBsAg IC50 and HBV DNA IC50 values were derived from the dose-response curve using 4 parameter logistic curve fit method.
In turn, `O=C(Nc1ccc(OCCOC2CC(C(=O)O)C2)cc1F)c1cc(=O)c2cccc(Cl)c2o1` (stereo not drawn) [Example 1, 3-(2-(4-(8-chloro-4-oxo-chromene-2-carboxamido)-3-fluorophenoxy)ethoxy)cyclobutanecarboxylic Acid] displayed a concentration for half-maximal inhibition (IC50) of 2.86 µM.
The same measure, in the same setting: then `Cc1cc(OCCOC2CC(C(=O)O)C2)ccc1NC(=O)c1cc(=O)c2cccc(Cl)c2o1` (stereo not drawn) [Example 2, 3-(2-(4-(8-chloro-4-oxo-chromene-2-carboxamido)-3-methylphenoxy)ethoxy)cyclobutanecarboxylic Acid], with 4.36 µM.
Turning to `O=C(Nc1ccc(OCCOC2CC(C(=O)O)C2)cc1C(F)(F)F)c1cc(=O)c2cccc(Cl)c2o1` (stereo not drawn) [Example 5, 3-(2-(4-(8-chloro-4-oxo-chromene-2-carboxamido)-3-(trifluoromethyl)phenoxy)ethoxy)cyclobutanecarboxylic Acid], the IC50 was 7.42 µM.
Still for that read-out and setting: then `O=C(Nc1nnc(C(F)(F)F)s1)c1cc(=O)c2cccc(Cl)c2o1` [Example 6, 8-chloro-4-oxo-N-(5-(trifluoromethyl)-1,3,4-thiadiazol-2-yl)-chromene-2-carboxamide], with 9.53 µM; and `O=C(NCc1ccc(Cl)cc1Cl)c1cc(=O)c2cccc(Cl)c2o1` [Example 9, 8-chloro-N-(2,4-dichlorobenzyl)-4-oxo-chromene-2-carboxamide], with 14.1 µM; and `Cc1cc(Br)cnc1NC(=O)c1cc(=O)c2cccc(Cl)c2o1` [Example 10, N-(5-bromo-3-methylpyridin-2-yl)-8-chloro-4-oxo-chromene-2-carboxamide], with 24.3 µM.
Same read-out and setting: then `O=C(Nc1ccc(Cl)cc1C(F)(F)F)c1cc(=O)c2cccc(Cl)c2o1` [Example 12, 8-chloro-N-(4-chloro-2-(trifluoromethyl)phenyl)-4-oxo-chromene-2-carboxamide], with 34.2 µM; and `Cc1cc(Cl)ccc1NC(=O)c1cc(=O)c2cc(Cl)cc(Cl)c2o1` [Example 13, 6,8-dichloro-N-(4-chloro-2-methylphenyl)-4-oxo-chromene-2-carboxamide], with 36.3 µM.
Still for that read-out and setting: then `COc1ccc2c(c1)CCN(C(=O)c1cc(=O)c3cccc(Cl)c3o1)C2` [Example 14, 8-Chloro-2-(6-methoxy-3,4-dihydro-1H-isoquinoline-2-carbonyl)chromen-4-one], with 36.3 µM; and `Cc1ccccc1NC(=O)c1cc(=O)c2cccc(Cl)c2o1` [Example 15, 8-chloro-4-oxo-N-(o-tolyl)-chromene-2-carboxamide], with 37.6 µM.
The compound `O=C(c1cc(=O)c2cccc(Cl)c2o1)N1CCc2ccc(Cl)cc2C1` [Example 16, 8-Chloro-2-(7-chloro-3,4-dihydro-1H-isoquinoline-2-carbonyl)chromen-4-one] gave an IC50 of 40.3 µM.
The same measure, in the same setting: with `Cc1cc(C(=O)O)ccc1NC(=O)c1cc(=O)c2cccc(Cl)c2o1` [Example 18, 4-(8-chloro-4-oxo-chromene-2-carboxamido)-3-methylbenzoic Acid] the figure was 43 µM; with `Cc1cc(OCCOCC(=O)O)ccc1NC(=O)c1cc(=O)c2cccc(Cl)c2o1` [Example 19, 2-(2-(4-(8-chloro-4-oxo-chromene-2-carboxamido)-3-methylphenoxy)ethoxy)acetic Acid], 31.6 µM.
The same measure, in the same setting: then `O=C(O)C1CC(OCCOc2ccc3c(c2)CCN(c2cc(=O)c4cccc(Cl)c4o2)C3)C1` (stereo not drawn) [Example 36, 3-[2-[[2-(8-chloro-4-oxo-chromen-2-yl)-3,4-dihydro-1H-isoquinolin-6-yl]oxy]ethoxy]cyclobutanecarboxylic Acid], with 0.61 µM.
The same measure, in the same setting: then `O=C(O)C1CC(OCCOc2ccc3c(c2)CN(c2cc(=O)c4cccc(Cl)c4o2)C3)C1` (stereo not drawn) [Example 37, 3-[2-[2-(8-chloro-4-oxo-chromen-2-yl)isoindolin-5-yl]oxyethoxy]cyclobutanecarboxylic Acid], with 1.06 µM.
